According to patent US20220133747A1, “ESTROGEN RECEPTOR INHIBITORS AND USES THEROF” (The Regents of the University of California, priority 2018, published 2022):
Entries after “also recorded” stand apart in the source; their conditions may differ. Like-named read-outs stand apart in the source and are kept apart here.

Columns and labels:
[1] = clinic; cited from earlier work
[2] = test system: immune cell subsets in 4T1 tumors; experiment: Mass cytometry (CyTOF) of immune cell subsets in 4T1 tumors; format: in vivo, BALB/c mice
Protocol: Single cell suspensions were prepared from 4T1 tumors grown in BALC/c mice treated for 12 days with control (CON), 100 μg of anti-PD-L1 antibody Q3 days (PD-L1), 50 mg/kg SERD128 via oral gavage (SERD128) or combined (PD-L1+SERD128). Cells were labeled with specific antibodies and analyzed by mass cytometry (cyTOF).
Cells were labeled with specific antibodies and analyzed by mass cytometry (CyTOF).
Tumors from each mouse were harvested after 10-12 days of treatment as described above. Single cell suspensions were generated from tumors using the MACS mouse tumor dissociation kit (Miltenyi Biotech Cat. 130-096-730) following manufacturer's instructions. One million cells per tumor were resuspended in PBS and labeled with Cell-ID Cisplatin (Fluidigm, Cat. 201064) to assess for live/dead cells. For antibody labeling, we used the recommended cell surface staining procedure (Fluidigm) followed by the FoxP3/Transcription Staining Buffer Set protocol (eBiosciences™). Cells were labeled with a panel of 28 metal-conjugated antibodies to determine different immune lineages in addition to memory, trafficking, activation, and exhaustion markers (see Tables 2-3 for list of antibodies). After washing and centrifugation, cells were fixed using MaxPar Fix and Perm buffer (Fluidigm, Cat. 201067) and labelled for single cell discrimination with Cell-ID Intercalator-Ir (Fluidigm, Cat. 201192A). Samples were resuspended with 10% EQ four-element calibration beads (Fluidigm, Cat. 201078), and filtered through a 40 μm mesh filter prior to acquisition on a HELIOS' mass cytometer (Fluidigm), at a rate of 300-500 events/s.
Collected mass cytometry data was analyzed as previously described. Briefly, samples were normalized utilizing a bead standard. First, each cytometry file was processed in FLOWJO (v10.3), then manually gated for stability of signal over time, followed by exclusion of normalization beads, ratio of DNA intercalators (191Ir+vs 193Ir+), with finally single cell events (Ir193 vs event length) (FIG. 24A). After that, viable (195Pt−)CD45+ events were exported and uploaded into the X-shift (VorteX) clustering environment to obtain the k-nearest-neighbor density estimation as described before. Dimensionality reduction of unclustered data was performed using the t-stochastic neighborhood embedding (t-SNE) and PhenoGraph algorithms implemented in the Cytofkit library, supplied by BIOCONDUCTOR v.3.4 and run in RSTUDIO v.1.1.463. A fixed number of 10,000 cells were sampled without replacement from each file and combined for analysis. Resulting t-SNE plots were subsequently filtered by marker expression to visualize differences between different treatment groups. Heatmaps were generated using Z-scores based on median marker expression (excel and Prism v7).

[3] = target: T1, ER (Homo sapiens, UniProt P03372); experiment: Specific [3H]estradiol-17β binding competition in MCF-7 breast cancer cells; conditions: MCF-7 cells, 10 nM
T1 construct: endogenous in cells; host or cells: MCF-7 human breast cancer cells in suspension (intact cells)
T1 sequence (P03372 1-595): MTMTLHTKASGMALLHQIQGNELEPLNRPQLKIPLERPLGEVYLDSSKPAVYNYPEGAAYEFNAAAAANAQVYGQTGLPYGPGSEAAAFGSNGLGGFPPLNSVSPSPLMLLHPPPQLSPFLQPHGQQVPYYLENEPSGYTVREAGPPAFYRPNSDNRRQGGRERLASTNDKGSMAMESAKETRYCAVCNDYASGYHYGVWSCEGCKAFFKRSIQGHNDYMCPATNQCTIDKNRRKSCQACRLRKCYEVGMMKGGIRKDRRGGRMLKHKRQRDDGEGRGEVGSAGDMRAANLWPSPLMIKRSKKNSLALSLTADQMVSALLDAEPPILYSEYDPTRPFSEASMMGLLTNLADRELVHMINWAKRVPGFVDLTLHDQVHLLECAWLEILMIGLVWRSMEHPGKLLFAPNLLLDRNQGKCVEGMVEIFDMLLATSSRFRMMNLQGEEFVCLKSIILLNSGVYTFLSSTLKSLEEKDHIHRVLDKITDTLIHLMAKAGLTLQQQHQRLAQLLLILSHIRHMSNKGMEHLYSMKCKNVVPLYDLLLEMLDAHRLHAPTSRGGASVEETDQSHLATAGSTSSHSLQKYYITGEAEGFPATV
Protocol: (§1) FIGS. 20A-20C show biologic activity of selected SERD candidates. […] ER-positive MCF-7 cells were treated in phenol-red free RPMI 1640 without FBS and containing vehicle control (CON) or 100 nM concentrations of either fulvestrant (FX) or antiestrogens 105, 109, 121, 140, 151, 160 or SERD128 in vitro. After 4 hours, cells were harvested and processed for PAGE and Western immunoblots using ERα antibody (1D5, Thermofisher Scientific). RPL13A was used as a loading control. […] Cells were dosed with either E2 alone or with SERDs combined with E2 in phenol redfree medium with 0.1% dextran-coated charcoal-treated FBS in luminometer plates. Data are presented as relative light units (RLU) relative to that of E2 alone in three replicate assays (4 wells per replicate) f SEM. Treatment with E2 alone induced a 12-fold induction of ER-dependent luciferase activity quantified as RLU relative to vehicle control-treated samples.
Specific estradiol-17β (E2) binding and competition for binding by antiestrogen SERD128 or fulvestrant was assessed in human MCF-7 breast cancer cells using methods as described before. […] Competitive ligand binding to ER-positive MCF-7 cells is detected by the ability of a test compound to displace labeled estradiol-17β from the cells in vitro.

[4] = target: T2, ERα (Homo sapiens, UniProt P03372); experiment: Downregulation of ER protein, PAGE and Western immunoblot in MCF-7 cells; format: cell-based; conditions: 100 nM, 4 hours, phenol-red free medium without FBS
T2 construct: endogenous in cells; host or cells: MCF-7 human breast cancer cells (ATCC)
T2 sequence (P03372 1-595): T1 sequence (P03372 1-595)
Protocol: as §1
MCF7 cells were plated in regular medium. After 24 hrs, cells were incubated in the presence of antiestrogens or fulvestrant for 4 hrs in phenol-red free medium without FBS. Cell lysates were prepared using RIPA buffer, and protein concentration was determined using the BCA Protein Assay Kit (PIERCE/ThermoFisher Scientific). Forty micrograms of total cell protein was resolved by 4-15% SDS-PAGE, transferred to a PVDF membrane and probed with antibody directed against ERα (1D5, 1:100, ThermoFisher cat #MA5-13191). RPL13A (dilution 1:1000, Invitrogen/ThermoFisher cat #PA5-58528) was used as loading control.

[5] = test system: ZR75 cells; experiment: Cell proliferation assay, ZR75; format: cell-based, human; conditions: ZR75, 10 nM with 2 nM estradiol-17β, 48 hr

SMILES | bioavailability [1] | total dendritic cells (CD11c+MHCII+) [2] | B regulatory cells (CD19+ CD25+ CD69+, gated on CD19+) [2] | M1 macrophages (MHCII high) [2] | M2 macrophages (MHCII low) [2] | markers of CD8+ TIL activation and/or proliferation [2] | stimulatory/myeloid dendritic cells (mDCs) [2] | markers of CD8+ TIL activation and/or proliferation ([2]; listed as S128) | competition for specific [3H]estradiol-17β (E2) binding [3] | downregulation of ER protein (ERα protein levels) [4] | downregulation of ER protein (ERα protein levels) ([4]; listed as 128) | cell proliferation (% of estradiol-treated controls) [5]
C[C@]12CC[C@@H]3c4ccc(O)cc4C[C@@H](CCCCCCCCC[S+]([O-])CCCC(F)(F)C(F)(F)F)[C@H]3[C@@H]1CC[C@@H]2O (stereo partly shown) [fulvestrant, reference compound] | very low bioavailability | increased the population of DCs in 4T1 tumors |  |  |  |  |  |  |  |  |  | 
C[C@]12C[C@H](Oc3ccc(N)c(C(F)(F)F)c3)[C@@H]3c4ccc(O)cc4CC[C@H]3[C@@H]1CC[C@@H]2O [SERD128, (8S,9S,11S,13S,14S,17S)-11-(4-Amino-3-(trifluoromethyl)phenoxy)-13-methyl-7,8,9,11,12,13,14,15,16,17-decahydro-6H-cyclopenta[a]phenanthrene-3,17-diol] |  | increase expression of total dendritic cells; also recorded: increased population of mDCs in 4T1 tumors as well as the total population of DCs | decreases expression of B regulatory cells; also recorded: decrease expression of this subpopulation | increase in the M1 tumoricidal population of macrophages; also recorded: increases the ER+M1-tumoricidal subset of macrophages | notable decrease in the M2 phenotype; also recorded: reduces the M2-phenotype | promotes enhanced proliferation and activation of CD8^+ T-cells | increase expression of total dendritic cells (DC) and their stimulatory/myeloid subgroup; also recorded: increased population of mDCs | increased | comparable to that of the pure antiestrogen fulvestrant | comparable to that of the pure antiestrogen fulvestrant | most effective in reducing ER protein levels; also recorded: comparable to that of fulvestrant | significantly blocked proliferation; also recorded: significantly inhibited
